Measured values: patent publication EP0043274A2, “Antithrombotic treatment” (priority 1980, dated 1982)
Read-outs that look alike come from different tables or passages of the source.

How the values were obtained:
[1] = test system: human plasma; format: biochemical; settings: for PTT (effect in words): in vitro
[2] = test system: human plasma; format: biochemical; settings: for PT (effect in words): in vitro, 0.5 mg/ml
[3] = test system: thrombus formation in the jugular vein; test: I 125 fibrinogen technique, damaged jugular vein (venous thrombosis), continuous infusion; format: in vivo, rabbits
Protocol: The anti venous thrombotic effect of sodium bisulfite is evaluated in rabbits by using I ^125 fibrinogen technique as described in an article in "Archives of Surgery" Vol. 104, pg. 152 (1972).
The rabbit was continuously infused with aqueous sodium bisulfite solution at the rate of […]. (5.154 gram per hour) (animal body weight 2.3 kg) for a time of five hours. After 5 hours, the animal was sacrificed and the radioactive fibrinogen accumulated in the damaged jugular vein was determined. The radioactivity on the contra-lateral (undamaged) jugular vein was also determined to serve as a control. Concurrently, another rabbit had experienced the same procedure but received only a standard sodium chloride solution as a control. The rabbit from the normal saline solution has seven times as much radioactivity as his counterpart infused with sodium bisulfite.
Two jugular veins on a normal, healthy rabbit are exposed and one of the veins is systematically damaged by clamping in two longitudinally spaced places. The rabbit is then continuously infused with aqueous sodium formaldehyde bisulfite at the rate of […] (5.154 gram per hour) (animal body weight 2.3 kg). The rabbit is then injected with fibrinogen labeled with I^125. After 5 hours, the damaged jugular vein is evaluated for radioacive count with a Geiger counter.
This iodine 125 evaluation technique is described by Kakkar in Archieves of Surgery, Vol. 104, pg. 152 (1972) and by Kelton, J.G. et al, Journal of Clinical Investigation, Vol. 62, pgs. 892-895, (1978). […] Other rabbits, similarly evaluated, died, apparently because of overdose by the infustion technique.

[4] = test system: rabbit platelet rich plasma; test: Platelet aggregation in platelet rich plasma, platelet aggregometer (technique of Born); format: cell-based; settings: platelet rich plasma from rabbit
Protocol: (§1) Platelet rich plasma from rabbit and men was prepared by the centrugation technique referenced in Example 13. Using ADP (adosine diphosphate) as a stimulus rapid aggregation of platelets occurred. […] This procedure is described in the article by Born in Nature, Vol. 194, pgs. 927-929 (1962).
as §1, with “rabbits” for “rabbit”, “diphosphate) arachidonic acid” for “diphosphate)”, “stimulus,” for “stimulus”, “Born,” for “Born in”

[5] = test system: human platelet rich plasma; test: as above; format: cell-based; settings: platelet rich plasma from men
From the text: A present preference for purposes of evaluating an - antithrombotic effect is to withdraw samples of blood from a patient undergoing treatment and to measure platelet aggregation. One method is described in the paper by Born in Nature 194, pp. 927-929 (1962), which may be used for this purpose if desired.
That sodium bisulfite is an antiplatelet aggregatory agent is shown by using a platelet aggregometer based on the technique of Born (above cited).
as §1
as §1, with “rabbits” for “rabbit”, “diphosphate) arachidonic acid” for “diphosphate)”, “stimulus,” for “stimulus”, “Born,” for “Born in”

[6] = test system: blood; test: PT and PTT of blood after oral gavage; format: in vivo, rabbit; settings: orally by gavage about 50 mg/kg in two spaced doses (solution of Example X); after 1 day
[7] = test system: platelet rich plasma; test: Platelet aggregation in platelet rich plasma from injected rabbit (ex vivo); settings: injected with about 72 mg/kg of body weight; blood sample after 5 hours
Protocol: (§2) A rabbit is injected with about +72 mg/kg of body weight of triethyl amine bisulfite. After a period of 5 hours, a blood sample was withdrawn and centrifuged at 1000 r.p.m. (220 g) for 10 minutes to give a platelet rich plasma. […] It is concluded that triethyl amine bisulfite is an agent which inhibits thrombotic condition formation in vivo.
as §2, with “72” for “+72”, “sodium formaldehyde” for “triethyl amine”, “minuts” for “minutes”, “thrombus” for “thrombotic condition”

[8] = test system: thrombus; test: Antithrombotic effect in rabbit (Kelton et al); format: in vivo; settings: 50 mg/kg
From the text: Evaluation of the antithrombotic effect of sodium formaldehyde bisulfite was caried out on a rabbit as described in Kelton et al: "Thrombogenic Effect of High Dose Aspirin in Rabbits", Journal of Clinical Investigation", Volume 62, pages 892-895, 1978.

[9] = molecular target: T1, FIBRINOGEN (Homo sapiens, UniProt P02671+P02675+P02679); test: Coagulation factor assay (Biggs): fibrinogen; format: biochemical; settings: mean of two experiments; control 205
T1 construct: from tissue; host or cells: human plasma
T1 sequence (P02671 20-629 limits assumed): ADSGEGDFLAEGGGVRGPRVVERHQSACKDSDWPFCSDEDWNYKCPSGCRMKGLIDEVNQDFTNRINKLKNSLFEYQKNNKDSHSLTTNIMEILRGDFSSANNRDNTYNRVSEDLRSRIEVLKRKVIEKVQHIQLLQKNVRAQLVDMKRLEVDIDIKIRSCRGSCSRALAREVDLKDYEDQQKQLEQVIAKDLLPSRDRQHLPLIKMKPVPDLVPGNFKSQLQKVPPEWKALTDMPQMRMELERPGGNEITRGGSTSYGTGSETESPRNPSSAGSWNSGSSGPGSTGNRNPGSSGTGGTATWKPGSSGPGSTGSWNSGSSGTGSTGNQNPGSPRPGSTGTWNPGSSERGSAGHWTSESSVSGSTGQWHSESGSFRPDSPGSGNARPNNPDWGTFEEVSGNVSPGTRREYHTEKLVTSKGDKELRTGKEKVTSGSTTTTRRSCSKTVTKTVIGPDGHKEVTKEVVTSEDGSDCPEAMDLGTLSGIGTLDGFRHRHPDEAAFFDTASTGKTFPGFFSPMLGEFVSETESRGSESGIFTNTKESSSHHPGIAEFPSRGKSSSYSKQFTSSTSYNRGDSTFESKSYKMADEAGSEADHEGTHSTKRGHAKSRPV
T1 sequence (P02675 31-491): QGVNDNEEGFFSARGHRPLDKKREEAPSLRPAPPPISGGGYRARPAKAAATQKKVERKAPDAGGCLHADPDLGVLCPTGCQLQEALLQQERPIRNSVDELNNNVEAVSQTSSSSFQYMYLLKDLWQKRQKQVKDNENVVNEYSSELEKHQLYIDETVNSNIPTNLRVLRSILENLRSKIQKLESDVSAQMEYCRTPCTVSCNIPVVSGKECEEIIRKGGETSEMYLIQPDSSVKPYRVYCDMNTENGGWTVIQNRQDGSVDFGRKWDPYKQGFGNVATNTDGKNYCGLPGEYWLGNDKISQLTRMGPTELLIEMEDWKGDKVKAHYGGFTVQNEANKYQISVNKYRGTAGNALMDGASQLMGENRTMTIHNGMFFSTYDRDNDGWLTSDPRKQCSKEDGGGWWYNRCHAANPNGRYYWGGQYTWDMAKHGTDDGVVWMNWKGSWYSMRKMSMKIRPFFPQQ
T1 sequence (P02679 27-453): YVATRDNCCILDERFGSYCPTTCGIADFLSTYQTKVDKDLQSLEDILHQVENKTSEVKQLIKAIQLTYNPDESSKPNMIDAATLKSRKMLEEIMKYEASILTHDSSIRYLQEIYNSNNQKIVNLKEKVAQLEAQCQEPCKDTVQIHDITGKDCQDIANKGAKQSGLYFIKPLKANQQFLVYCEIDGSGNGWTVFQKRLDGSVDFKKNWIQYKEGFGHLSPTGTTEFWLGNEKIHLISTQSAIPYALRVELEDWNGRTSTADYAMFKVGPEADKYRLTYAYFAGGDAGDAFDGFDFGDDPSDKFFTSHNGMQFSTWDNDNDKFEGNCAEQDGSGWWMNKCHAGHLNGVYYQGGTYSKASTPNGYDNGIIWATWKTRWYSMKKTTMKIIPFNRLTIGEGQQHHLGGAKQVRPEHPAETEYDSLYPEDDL
Protocol: (§3) The effect of U.S.P. grade sodium bisulfite on blood coagulation factors is evaluated by standard procedures (Biggs) and the results are shown in Table III below.
(§4) References for PT, PTT, and assays of all the coagulation factors can be found in a standard textbook, entitled "Human Blood Coagulation, Haemostasis and Thrombosis", edited by Rosemary Biggs, published by Blackwell Scientific Publications, Oxford, England (2nd edition), pages 670-705, 1976.

[10] = molecular target: T2, F IX (Homo sapiens, UniProt P00740); test: Coagulation factor assay (Biggs): Factor IX; format: biochemical; settings: single experiment; control 50
T2 construct: from tissue; host or cells: human plasma
T2 sequence (P00740 47-461): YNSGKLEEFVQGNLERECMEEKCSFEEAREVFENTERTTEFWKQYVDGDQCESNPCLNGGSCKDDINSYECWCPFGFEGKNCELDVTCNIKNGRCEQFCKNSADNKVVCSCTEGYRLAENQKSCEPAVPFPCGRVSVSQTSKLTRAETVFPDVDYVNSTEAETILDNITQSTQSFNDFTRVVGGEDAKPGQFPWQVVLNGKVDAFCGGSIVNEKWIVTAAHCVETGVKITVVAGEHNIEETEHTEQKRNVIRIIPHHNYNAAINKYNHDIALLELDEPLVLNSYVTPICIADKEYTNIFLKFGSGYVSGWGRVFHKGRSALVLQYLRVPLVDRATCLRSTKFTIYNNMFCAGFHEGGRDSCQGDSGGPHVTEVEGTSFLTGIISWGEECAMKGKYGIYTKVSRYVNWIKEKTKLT
Protocol: as §3, §4

[11] = test system: platelet rich plasma; test: Platelet aggregation in platelet rich plasma, ADP stimulus (Example 25); format: cell-based; settings: plasma first treated with the compound
From the text: Plasma was centrifuged at 1000 r.p.m. (200 g) to prepare a platelet rich plasma. Using adosine diphosphate (ADP) as a stimulous, rapid aggregation of platelets in the plasma was efected. On the other hand, when such plasma is first treatd with (a) tetramethyl ammonium sulfite, (b) tetramethyl ammonium bisulfite, and then (c) tetrabutyl

[12] = molecular target: T1, FIBRINOGEN; test: Coagulation factor assay (Biggs): fibrinogen; format: biochemical; settings: mean of 2 experiments; control 205
[13] = test system: rat plasma; test: Blood coagulation tests (PT, PTT, coagulation factors) in vitro; format: biochemical; settings: rat plasma in vitro, 0.5 mg/ml
From the text: (§5) The alkali metalbisulfites, sodium and potassium, and ammonium bisulfite are found to prolong PT and PTT in a dose-related fashion.

[14] = test system: rabbit plasma; test: as above; format: biochemical; settings: rabbit plasma in vitro, 0.5 mg/ml
From the text: as §5
The Solution I is found to prolong PT and PTT in a dose related fashion. […] The agent is active in inhibiting various coagulation factors, including factors VII, IX, X, XI, and XII.

[15] = amine bisulfites, control plasma 12.8 / 13.1
[16] = continuous infusion for five hours

With `OCCNCCO` [DIETHANOL AMINE] the “PTT REPLICATIONS 2” value [1] was 58.0, the “PTT REPLICATIONS 1” value ([1]; amine bisulfites, control plasma 37.5 / 38.2) was 62.6 and the “PTT REPLICATIONS 3” value ([1]; amine bisulfites, control plasma 37.8 / 39.2) was 60.6. The “PT REPLICATIONS 1” value [2, 15] was 20.6, the “PT REPLICATIONS 2” value [2, 15] was 19.8 and the “PT REPLICATIONS 3” value ([2]; amine bisulfites, control plasma 13.1 / 13.0) was 19.7. The “thrombus formation in the jugular vein (conclusion in words)” value (“thrombus formation in the jugular vein” below) [3, 16] was “definite positive antithrombotic effect”.

In the case of `O=S(=O)(O)CO` [Sodium formaldehyde bisulfite], the “PTT” value ([1]; 0.5 mg/ml, two different days, control 42.6 / 42.10) is reported as 56.30 s, the PTT ([1]; 0.01 Molar, control 33.4) is reported as 54.6 and the “PTT” value ([1]; coded agents 0.5mg/ml, […], control 43.38) is reported as 58.60 s. The “PTT REPLICATIONS I” value ([1]; control 38.2 (50.5 for Sodium formaldehyde Bisulfite)) was 63.5, the “PTT (effect in words)” value ([1]; 0.5 mg/ml) was “effective” and the “platelet aggregation, ADP (adosine diphosphate) as a stimulus” value [4] was “strong inhibition of platelet aggregation”. For the same compound, the “PT” value [2] was 19.68 s, the PT ([2]; 0.01 Molar, control 12.5) was 24.4 and the “PT” value ([2]; coded agents 0.5mg/ml, […], control 12.92) was 19.50 s. For the same compound, the “PT REPLICATIONS I” value ([2]; control 13.1 (14.1 for Sodium formaldehyde Bisulfite)) was 20.5, the “PT (effect in words)” value [2] was “effective” and the “platelet aggregation, ADP (adosine diphosphate) as a stimulus” value [5] was “strong inhibition of platelet aggregation”. The “PT and PTT values of the animal's blood compared with untreated control rabbit” value [6] was “lengthened”, the “aggregation of platelets in comparison with an untreated rabbit” value [7] was “markedly decreased” and the “mortality of infused rabbits” value ([3]; continuous infusion) was “died”. For the same compound, the “radioactivity (I 125 fibrinogen) in damaged jugular vein of saline control rabbit relative to treated rabbit” value [3, 16] was “more radioactivity”, the “thrombus formation in the jugular vein” value [3, 16] was “definite positive effect of decreasing thrombus formation” and the “disappearance of the thrombus compared with a control animal” value [8] was “the thrombus disappeared more rapidly”.

For `CCN(CC)CC.O=S(O)O` [TRIETHYL AMINE SULFITE, triethyl amine sulfite], the “MEAN LSD (PTT)” value [1] was 60.6 ± 4.1 s, the “PTT(Sec) […]. 1” value [1] was 59.2 s and the “PTT(Sec) […]. 2” value [1] was 65.1 s. For the same compound, the “PTT(Sec) […]. 3” value [1] was 54.9 s, the “PTT(Sec) […]. 4” value [1] was 59.0 s and the “PTT(Sec) […].5” value [1] was 64.0 s. For the same compound, the “MEAN LSD (PT)” value [2] was 16.9 ± 1.1 s, the “PT(Sec) […]. 1” value [2] was 17.0 s and the “PT(Sec) […]. 2” value [2] was 18.5 s. For the same compound, the “PT(Sec) […]. 3” value [2] was 15.4 s, the “PT(Sec) […]. 4” value [2] was 16.6 s and the “PT(Sec) […].5” value [2] was 16.8 s. For the same compound, the “Fibrinogen (%)” value [9] was 170% and the “thrombus formation in the jugular vein” value [3, 16] was “definite positive antithrombotic effect”.

`C[N+](C)(C)C` [Tetramethyl-ammonium sulfite] was tested, and the “Factor IX (%)” value [10] was 20%, the “platelet aggregation, adosine diphosphate (ADP) as a stimulous” value [11] was “inhibited” and the “Fibrinogen (%)” value [12] was 175%.

ammonium bisulfite was tested, and the “PT and PTT (effect in words)” value [13] was “significantly prolong”, the “PTT (effect in words)” value ([1]; 0.5 mg/ml) was “significantly prolong” and the “PT (effect in words)” value [2] was “significantly prolong”. The “PT and PTT (effect in words)” value [14] was “significantly prolong”.

potassium bisulfite was tested, and the “PT and PTT (effect in words)” value [13] was “significantly prolong”, the “PTT (effect in words)” value ([1]; 0.5 mg/ml) was “significantly prolong” and the “PT (effect in words)” value [2] was “significantly prolong”. The “PT and PTT (effect in words)” value [14] was “significantly prolong”.
